Data from patent US9029368B2, “3,7-disubstituted octahydro-2H-pyrido[4,3-E][1,3]oxazin-2-one antibiotics” (Actelion Pharmaceuticals Ltd., priority 2011, dated 2015).
≈ marks a conversion by molar mass, not a printed value.

These compounds were tested on S. aureus 29213 (assay: Bacterial growth minimal inhibitory concentrations (microdilution in cation-adjusted Mueller-Hinton Broth, CLSI M7-A7)). Conditions: Staphylococcus aureus, 29213, microdilution method.
Format: cell-based
Experimental: Bacterial Growth Minimal Inhibitory Concentrations: Minimal inhibitory concentrations (MICs; mg/l) were determined in cation-adjusted Mueller-Hinton Broth by a microdilution method following the description given in “Methods for Dilution Antimicrobial Susceptibility Tests for Bacteria that Grow Aerobically”, Approved standard, 7th ed., Clinical and Laboratory Standards Institute (CLSI) Document M7-A7, Wayne, Pa., USA, 2006. All Example compounds were tested against several Gram positive and Gram negative bacteria.
For COc1ccc2ccc(=O)n(CCN3CC[C@@H]4CN(c5ccc6c(n5)NC(=O)CO6)C(=O)O[C@H]4C3)c2n1 (racemic) [Example 25, rac-(4aR*,8aR*)-7-[2-(7-methoxy-2-oxo-2H-[1,8]naphthyridin-1-yl)-ethyl]-3-(3-oxo-3,4-dihydro-2H-pyrido[3,2-b][1,4]oxazin-6-yl)-octahydro-pyrido[4,3-e][1,3]oxazin-2-one], the MIC was ≤ 0.031 µg/mL. COc1ccc2ccc(=O)n(CCN3CC[C@@H]4CN(c5ccc6c(n5)NC(=O)CS6)C(=O)O[C@H]4C3)c2n1 (racemic) [Example 26, rac-(4aR*,8aR*)-7-[2-(7-methoxy-2-oxo-2H-[1,8]naphthyridin-1-yl)-ethyl]-3-(3-oxo-3,4-dihydro-2H-pyrido[3,2-b][1,4]thiazin-6-yl)-octahydro-pyrido[4,3-e][1,3]oxazin-2-one] was tested, and the MIC was ≤ 0.031 µg/mL. COc1ccc2ncc(F)c(CCN3CC[C@@H]4CN(c5cc6c(nn5)OCCS6)C(=O)O[C@H]4C3)c2n1 (racemic) [Example 27, rac-(4aR*,8aR*)-3-(6,7-dihydro-8-oxa-5-thia-1,2-diaza-naphthalen-3-yl)-7-[2-(3-fluoro-6-methoxy-[1,5]naphthyridin-4-yl)-ethyl]-octahydro-pyrido[4,3-e][1,3]oxazin-2-one] was tested, and the MIC was ≤ 0.031 µg/mL. In the case of COc1ccc2ncc(=O)n(CCN3CC[C@@H]4CN(c5cc6c(nn5)OCCS6)C(=O)O[C@H]4C3)c2n1 (racemic) [Example 28, rac-(4aR*,8aR*)-3-(6,7-dihydro-8-oxa-5-thia-1,2-diaza-naphthalen-3-yl)-7-[2-(6-methoxy-3-oxo-3H-pyrido[2,3-b]pyrazin-4-yl)-ethyl]-octahydro-pyrido[4,3-e][1,3]oxazin-2-one], the MIC is reported as ≤ 0.031 µg/mL. O=C1O[C@H]2CN(CC3Cn4c(=O)ccc5ncc(F)c3c54)CC[C@@H]2CN1c1ccc2c(c1)OCCO2 (mixture of isomers) [Example 30, (RS)-4-[(4aR*,8aR*)-3-(2,3-dihydro-benzo[1,4]dioxin-6-yl)-2-oxo-octahydro-pyrido[4,3-e][1,3]oxazin-7-ylmethyl]-3-fluoro-4,5-dihydro-pyrrolo[3,2,1-de][1,5]naphthyridin-7-one] was tested, and the MIC was 0.5 µg/mL (≈ 1.02 µM). With COc1ccc2ccc(=O)n(CCN3CC[C@@H]4CN(c5ccc6c(c5)NC(=O)CS6)C(=O)O[C@H]4C3)c2n1 (racemic) [Example 31, rac-(4aR*,8aR*)-7-(2-(7-methoxy-2-oxo-1,8-naphthyridin-1(2H)-yl)ethyl)-3-(3-oxo-3,4-dihydro-2H-benzo[b][1,4]thiazin-6-yl)octahydro-2H-pyrido[4,3-e][1,3]oxazin-2-one] the MIC was ≤ 0.031 µg/mL. In the case of COc1ccc2ncc(F)c(C(O)CN3CC[C@@H]4CN(c5ccc6c(c5)NC(=O)CO6)C(=O)O[C@H]4C3)c2n1 (mixture of isomers) [Example 32, (4aR*,8aR*)-7-((2RS)-2-(3-fluoro-6-methoxy-1,5-naphthyridin-4-yl)-2-hydroxyethyl)-3-(3-oxo-3,4-dihydro-2H-benzo[b][1,4]oxazin-6-yl)octahydro-2H-pyrido[4,3-e][1,3]oxazin-2-one], the MIC is reported as 0.125 µg/mL (≈ 0.239 µM). COc1ccc2ccc(=O)n(CCN3CC[C@@H]4CN(c5ccc6c(c5)NC(=O)CO6)C(=O)O[C@H]4C3)c2n1 (racemic) [Example 34, rac-(4aR*,8aR*)-7-(2-(7-methoxy-2-oxo-1,8-naphthyridin-1(2H)-yl)ethyl)-3-(3-oxo-3,4-dihydro-2H-benzo[b][1,4]oxazin-6-yl)octahydro-2H-pyrido[4,3-e][1,3]oxazin-2-one] showed an MIC of 0.25 µg/mL (≈ 0.495 µM). O=C1O[C@H]2CN(C[C@H]3Cc4c(F)ccc5ccc(=O)n3c45)CC[C@@H]2CN1c1ccc2c(c1)OCCO2 (relative stereo) [Example 29, (R)-2-[(4aR*,8aR*)-3-(2,3-dihydro-benzo[1,4]dioxin-6-yl)-2-oxo-octahydro-pyrido[4,3-e][1,3]oxazin-7-ylmethyl]-9-fluoro-1,2-dihydro-pyrrolo[3,2,1-ij]quinolin-4-one] was tested, and the MIC was 0.25 µg/mL (≈ 0.509 µM). For COc1ccc2ncc(F)c(CCN3CC[C@@H]4CN(c5ccc6c(c5)OCCO6)C(=O)O[C@H]4C3)c2n1 (single isomer, unassigned) [Example 1], the MIC was ≤ 0.031 µg/mL. COc1ccc2ncc(F)c(CCN3CC[C@H]4CN(c5ccc6c(c5)OCCO6)C(=O)O[C@@H]4C3)c2n1 (single isomer, unassigned) [Example 2] was tested, and the MIC was ≤ 0.031 µg/mL. For COc1ccc2ncc(F)c([C@H](O)CN3CC[C@H]4CN(c5ccc6c(c5)OCCO6)C(=O)O[C@@H]4C3)c2n1 (single isomer, unassigned) [Example 14], the MIC was ≤ 0.031 µg/mL. Work on COc1ccc2ncc(F)c([C@H](O)CN3CC[C@@H]4CN(c5ccc6c(c5)OCCO6)C(=O)O[C@H]4C3)c2n1 (single isomer, unassigned) [Example 15] yielded an MIC of 0.063 µg/mL (≈ 0.123 µM). COc1ccc2ncc(F)c(CCN3CC[C@@H]4CN(c5ccc6c(n5)NC(=O)CS6)C(=O)O[C@H]4C3)c2n1 (single isomer, unassigned) [Example 20] was tested, and the MIC was ≤ 0.031 µg/mL. With COc1ccc2ncc(F)c(CCN3CC[C@H]4CN(c5ccc6c(n5)NC(=O)CS6)C(=O)O[C@@H]4C3)c2n1 (single isomer, unassigned) [Example 21] the MIC was ≤ 0.031 µg/mL.

Same assay, conditions: microdilution method
In the case of O=C1COc2ccc(N3C[C@H]4CCN(C[C@H]5Cc6c(F)ccc7ccc(=O)n5c67)C[C@@H]4OC3=O)nc2N1 (relative stereo) [Example 33, (4aR*,8aR*)-7-0(R)-9-fluoro-4-oxo-2,4-dihydro-1H-pyrrolo[3,2,1-ij]quinolin-2-yl)methyl)-3-(3-oxo-3,4-dihydro-2H-pyrido[3,2-b][1,4]oxazin-6-yl)octahydro-2H-pyrido[4,3-e][1,3]oxazin-2-one], the “MIC for S. aureus 29213” value is reported as 0.125 µg/mL.
